Patent US20260327211A1, “MODULATORS OF A POTASSIUM CHANNEL AND OF TRPV1 CHANNEL AND USES THEREOF” (Bsense Bio Therapeutics Ltd., priority 2023, published 2026)
Read-outs that look alike come from different tables or passages of the source.

Tests used:
[1] = HepG2 toxicity, ATPlite; type: cell-based, human; conditions: human, hepg2 cells; 48 hours; read-out: HepG2 Toxicity LD50
Procedure: Cell culture: HepG2 cell-line cells were cultured in EMEM (ATCC 30-2033) medium supplemented with 10% fetal bovine serum (Biological Industries) in a humidified 5% CO2 incubator at 37° C.
ATPlite™ 1step Kit: ATPlite™ 1step kit (PerkinElmer) was used in a 384-wells format to assess potential liver toxicity using HepG2 cells. This is an ATP detection system based on firefly luciferase luminescence for the quantitative evaluation of proliferation and cytotoxicity of cells. ATP is a marker for cell viability because it is present in all metabolically active cells and its concentration declines very rapidly when the cells undergo necrosis or apoptosis.
According to an optimization process done to achieve uniform and consistent screening condition of molecules, the following protocol was established: Cells were seeded in 384-well, black-walled, clear-bottomed, at a density of 4000 cells per well […] and incubated overnight in their normal growth medium. On day two (48 hours before viability measurement), the tested compounds and the positive control were applied to the wells according to the plate design. […] 48 hours later, reconstituted lyophilized substrate solution was added to each well and the sealed 384-well microplate was mixed for 2 minutes at 1100 rpm in an orbital microplate and plates were incubated for 10 minutes in the dark at room temperature. Right after, luminescence was measured in the Tecan plate reader. To estimate the LD50 and LD25 values the data was fitted to sigmoidal regression using Prism-GraphPad. […]

[2] = Rat pharmacokinetics; type: in vivo; conditions: for clearance: read-out: PK: Cl; for bioavailability: po, 10 mg/kg; for half-life: read-out: PK: T1/2 (converted)
Procedure: The pharmacokinetic (PK) properties of test compound following single intravenous (IV) bolus and oral gavage (PO) administration in male Sprague-Dawley (SD) rats were determined in this study.
Test compound administration: Six male Sprague Dawley (SD) rats were divided into two designated groups, Group 1 and Group 2, each composed of three rat subjects. Group 1 animals were subjected to a single intravenous bolus administration of the test compound at a dosage of 1 mg/kg. Group 2 animals were administered with the test compound orally in a single dose, at a concentration of 10 mg/kg. Throughout the study, the animals had unhindered access to food. The test compound was administered at a concentration of 0.5 mg/mL and dose volume of 2 mL/kg for Group 1, and at a concentration of 1 mg/mL and dose volume of 10 mL/kg, for Group 2.
Sample extraction and analysis: Plasma samples were systematically collected at varying time points of 0.083 (only for Group 1), 0.25, 0.5, 1, 2, 4-, 6-, 8-, and 24-hours post-dose. LC-MS/MS was used to determine the test compound's concentration within the collected plasma samples. Data reflecting plasma concentration in correlation to time were graphically represented and subjected to a non-compartmental analysis using the Phoenix WinNonlin 6.3 software program. The resulting pharmacokinetic parameters, including Clearance (Cl), Volume of distribution at steady state (Vdss) and initial concentration (C0) for intravenous administration; peak concentration (Cmax), time of peak concentration (Tmax), and bioavailability (% F) for extravascular administration; and half-life (T1/2), Area Under Curve from time zero to time t (AUC(0-t)), Area Under Curve from time zero to infinity (AUC(0-inf)), Mean Residence Time from time zero to time t (MRT(0-t)), Mean Residence Time from time zero to infinity (MRT(0-inf)) for all routes, were systematically calculated.

[3] = Plasma protein binding, rat; type: in vitro ADME; conditions: read-out: PPB fu (rat)
Procedure: Incubation: Test compounds or the positive control warfarin were introduced into 10% plasma samples (Sourced from WuXi DMPK labs or from commercial vendors) to a concentration of 2 μM. A portion of 150 μL of the compound-containing plasma sample was added to one chamber of a 96-well equilibrium HTD dialysis plate. An equal volume of dialysis buffer was added to the corresponding chamber. A plasma sample was also taken before the incubation and designated as the T0 sample, serving for recovery calculation. The plate was incubated in a humidified 5% CO2 incubator at 37° C. for 4 hours. Each incubation was set up in triplicate.
Sample extraction and preparation: Following the incubation period, samples of 50 μL were drawn from both the plasma side and the buffer side and each was mixed with an equal volume of blank plasma. All matrix-matched samples were quenched using a stop solution containing an internal standard (IS).
Sample Analysis: The samples were subsequently analyzed by LC-MS/MS. The concentrations of the test compound in plasma and buffer samples were quantified based on the peak area ratio of analyte to the internal standard, with no requirement for a standard curve.

[4] = rat, plasma, read-out: PK: Oral BA

Row | SMILES | CC50 at 48 h [1] [µM] | clearance ([2]; rat, plasma, iv, 1 mg/kg) [mL/min/kg] | bioavailability [2, 4] [%] | fraction unbound at 4 h, 2 µM [3] | half-life ([2]; rat, plasma) [h] | Multiple of free plasma exposure over IC50 (rat DRG) ([2]; 10 mg/kg oral) [fold] | Free plasma exposure, fu plasma C8 hour ([2]; 10 mg/kg oral, 8 hours) [nM] | Dose from which efficacious levels are expected ([2]; oral, extrapolated from 10 mg/kg) [mg/kg] | Vd ([2]; rat, plasma, iv, 1 mg/kg, read-out: Volume of distribution at steady state (Vdss)) [L/kg] | bioavailability ([2]; rat, plasma, read-out: Oral bioavailability) [%]
1 | Cc1cn(-c2ccc(F)c(CC(=O)NCC(C)(C)O)c2)c2c(Cl)cc(Cl)cc12 [Compound 421] | > 1 | 38.5 | 10.6 | 0.0004 |  |  |  |  |  | 
2 | O=C(Cc1cc(-n2cc(Cl)c3cc(Cl)cc(Cl)c32)ccc1F)NCCO [Compound 627] | 3.37 | 65.8 | 25.3 | 0.0004 | 1.48 |  |  |  |  | 
3 | O=C(Cc1cncc(-n2cc(Cl)c3cc(Cl)cc(Cl)c32)c1)N[C@@H]1COC[C@H]1O [Compound 661] | > 16.6 | 35.7 | 28.8 | 0.0029 | 2.49 | 30 | 0.09 | 2 |  | 
4 | O=C(Cc1nccc(-n2cc(Cl)c3cc(Cl)cc(Cl)c32)n1)NC1COCC1O (centres unmarked) [Compound 760] |  | 60.1 |  |  | 2.68 |  |  |  | 2.37 | 48.6
5 | O=C(Cc1cc(-n2cc(C(F)(F)F)c3cc(Cl)cc(Cl)c32)ncn1)NCCO [Compound 843] |  | 6.6 | 73.4 |  |  |  |  |  |  | 
